In this experiment the test system is nitrification. The experiment is described as follows: Inhibition of nitrification in soil (48 well plate, ammonium sulfate, color reaction at 540 nm). Format: cell-based. To be noted: dose of 10 ppm in 1% DMSO; field soil (e.g. Limburgerhof); incubated at room temperature for up to 72 hrs; inhibition = 100 − % activity compared to control; read-out: IN (best inhibition value obtained for a compound). The procedure: The compounds of the invention have been tested as follows in terms of the inhibition of nitrification:
Soil was sampled fresh from a field (e.g. Limburgerhof), dried and sieved through a 500 μm sieve. Approximately 200 mg of soil were placed into each well of a 48 well plate. Compounds, or DMSO alone, were added at a concentration of 10 ppm, dissolved in 1% DMSO. 6 μmol ammonium sulfate was added per well as well as 4.8 mg NaClO3.
Subsequently, the samples were incubated at room temperature for up to 72 hrs. After the incubation period 64 mg KCl were added and mixed. 25 μl of the supernatant were placed into a fresh plate and 260 μl of a color reaction solution (from Merck Nr 1.11799.0100) were added.
Measurements were taken with a Tecan plate Reader at 540 nm wavelength.
Inhibition is calculated as x=% activity compared to control, and converted to 100−x to give the value of inhibition, rather than activity.

Regarding `C#Cc1c(C)nn(C)c1C` [Compound 3], the inhibition at 10 ppm was determined as 27%.

Take `C#Cc1cc(C#C)n(C)n1` [Compound 1]: the inhibition at 10 ppm came out at 55%.

With `C#Cc1ccnn1C` [Compound 2], the inhibition at 10 ppm was 24%.

(Values after patent US10676408B2, “Alkynylpyrazoles as nitrification inhibitors” (BASF SE, priority 2014, dated 2020).)
